Legend:
[1] = Dissolution of paracetamol in hydroalcoholic solution; assay type: physicochemical; conditions: ethanol at 45%
Description: The coefficient for dissolution of paracetamol in ethanol makes it possible to obtain a complete dissolution of said active ingredient at a level of 250 mg of paracetamol per 2 ml of ethanol at 45%. This coefficient can be modulated based on the degree of alcohol and the water/ethanol ratio that is used. By way of example, a 45% water/ethanol mixture at 50/50 by volume produces a better solubilization of paracetamol, compared to that obtained in pure ethanol.

[2] = administered dosage; cited from earlier work

complete dissolution of the active ingredient [1]: 250 mg per 2 ml
SMILES: CC(=O)Nc1ccc(O)cc1 [paracetamol]
dosage above which toxic to the liver [2]: higher than 4 g

— patent publication US8722744B2, “Galenical form for the administration of paracetamol by transmucous means” (priority 2006, dated 2014)
